Measurements as given in patent publication US20250230155A1 (Vanderbilt University, priority 2021, published 2025).

Molecular target: T1, human mAChR M4 (Homo sapiens, UniProt P08173)
T1 construct: expressed in transfected cells
T1 sequence (P08173 1-479): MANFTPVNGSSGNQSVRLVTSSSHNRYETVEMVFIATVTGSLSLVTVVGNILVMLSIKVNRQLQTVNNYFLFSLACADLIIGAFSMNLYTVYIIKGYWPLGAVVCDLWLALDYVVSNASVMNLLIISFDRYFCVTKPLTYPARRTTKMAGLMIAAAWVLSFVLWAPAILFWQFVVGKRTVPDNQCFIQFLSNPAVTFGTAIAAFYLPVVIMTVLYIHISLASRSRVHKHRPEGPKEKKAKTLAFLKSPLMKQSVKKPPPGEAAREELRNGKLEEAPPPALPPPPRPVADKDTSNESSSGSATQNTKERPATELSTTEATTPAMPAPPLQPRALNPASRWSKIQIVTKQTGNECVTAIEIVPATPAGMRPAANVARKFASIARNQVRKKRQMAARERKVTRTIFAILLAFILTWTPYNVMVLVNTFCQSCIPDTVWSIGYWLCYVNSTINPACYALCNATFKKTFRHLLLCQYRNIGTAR
Experiment: mAChR M4 cell-based functional assay (calcium mobilization, CHO-K1 hM4-Gqi5 cells)
Conditions: for Emax at 30 µM: CHO-K1, % ACh maximum at 30 μM, human M4; for EC50: positive allosteric modulator activity, increase in the EC20 acetylcholine response, CHO-K1 hM4-Gqi5 cells, read-out: Human M4 EC50
How it was run: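 CHO-K1 cells stably expressing human M4 with chimeric Gqi5, loaded with Fluo-4 AM; compounds given as 11-point 1:3 curves and calcium flux read on FDSS at 1 Hz. Acetylcholine EC20 added at 144 s, EC80 at 230 s; agonist, PAM (EC20 potentiation) and antagonist (EC80 inhibition) EC50/Emax from four-parameter fits.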

`Cc1cc(C#N)nnc1N1CCc2ncc(N3CC(C)Cn4nccc43)cc2C1` (stereo not drawn) [Example 381, 5-methyl-6-(3-(6-methyl-6,7-dihydropyrazolo[1,5-a]pyrimidin-4(5H)-yl)-7,8-dihydro-1,6-naphthyridin-6(5H)-yl)pyridazine-3-carbonitrile] gave an Emax at 30 µM of 98% and an EC50 of 0.384 µM.
`Cc1cc2n(n1)CCCN2c1cnc2c(c1)CN(c1nnc(C#N)cc1C)CC2` [Example 382, 5-methyl-6-(3-(2-methyl-6,7-dihydropyrazolo[1,5-a]pyrimidin-4(5H)-yl)-7,8-dihydro-1,6-naphthyridin-6(5H)-yl)pyridazine-3-carbonitrile] gave an Emax at 30 µM of 98% and an EC50 of 0.074 µM.
Molecule `Cc1cc(C#N)nnc1N1CCc2ncc(N3CCC(C)n4nccc43)cc2C1` (stereo not drawn) [Example 383, 5-methyl-6-(3-(7-methyl-6,7-dihydropyrazolo[1,5-a]pyrimidin-4(5H)-yl)-7,8-dihydro-1,6-naphthyridin-6(5H)-yl)pyridazine-3-carbonitrile] has an Emax at 30 µM of 97% and an EC50 of 0.171 µM.
`Cc1cc(C#N)cnc1N1CCc2ncc(N3CC(C)Cn4nccc43)cc2C1` (stereo not drawn) [Example 384, 5-methyl-6-(3-(6-methyl-6,7-dihydropyrazolo[1,5-a]pyrimidin-4(5H)-yl)-7,8-dihydro-1,6-naphthyridin-6(5H)-yl)nicotinonitrile] showed an Emax at 30 µM of 100% and an EC50 of 0.185 µM.
`Cc1cc2n(n1)CCCN2c1cnc2c(c1)CN(c1ncc(C#N)cc1C)CC2` [Example 385, 5-methyl-6-(3-(2-methyl-6,7-dihydropyrazolo[1,5-a]pyrimidin-4(5H)-yl)-7,8-dihydro-1,6-naphthyridin-6(5H)-yl)nicotinonitrile] was tested, and the Emax at 30 µM was 103% and the EC50 was 0.04 µM.
Work on `Cc1cc(C#N)cnc1N1CCc2ncc(N3CCC(C)n4nccc43)cc2C1` (stereo not drawn) [Example 386, 5-methyl-6-(3-(7-methyl-6,7-dihydropyrazolo[1,5-a]pyrimidin-4(5H)-yl)-7,8-dihydro-1,6-naphthyridin-6(5H)-yl)nicotinonitrile] yielded an Emax at 30 µM of 103% and an EC50 of 0.076 µM.
For `Cc1cc(C#N)cnc1N1CCc2ncc(N3CCOC(c4ccccn4)C3)cc2C1` (stereo not drawn) [Example 387, 5-methyl-6-(3-(2-(pyridin-2-yl)morpholino)-7,8-dihydro-1,6-naphthyridin-6(5H)-yl)nicotinonitrile], the Emax at 30 µM was 71% and the EC50 was 0.861 µM.
`Cc1c(C#N)nnc(N2CCc3ncc(N4CCOC(c5cccnc5)C4)cc3C2)c1C` (stereo not drawn) [Example 388, 4,5-dimethyl-6-(3-(2-(pyridin-3-yl)morpholino)-7,8-dihydro-1,6-naphthyridin-6(5H)-yl)pyridazine-3-carbonitrile] showed an Emax at 30 µM of 83% and an EC50 of 1.25 µM.
In the case of `Cc1cc(C#N)cnc1N1CCc2ncc(N3CCOC(c4cccnc4)C3)cc2C1` (stereo not drawn) [Example 389, 5-methyl-6-(3-(2-(pyridin-3-yl)morpholino)-7,8-dihydro-1,6-naphthyridin-6(5H)-yl)nicotinonitrile], the Emax at 30 µM is reported as 92% and the EC50 is reported as 0.942 µM.
Molecule `Cc1ncc(-c2cnc3c(c2)CN(c2nnc(C#N)cc2C)CC3)s1` [Example 390, 5-methyl-6-(3-(2-methylthiazol-5-yl)-7,8-dihydro-1,6-naphthyridin-6(5H)-yl)pyridazine-3-carbonitrile] has an Emax at 30 µM of 78% and an EC50 of 0.433 µM.
`Cc1cc(C#N)nnc1N1CCc2ncc(N3CCOc4ncccc43)cc2C1` [Example 391, 6-(3-(2,3-dihydro-1H-pyrido[2,3-b][1,4]oxazin-1-yl)-7,8-dihydro-1,6-naphthyridin-6(5H)-yl)-5-methylpyridazine-3-carbonitrile] gave an Emax at 30 µM of 89% and an EC50 of 0.053 µM.
For `Cc1ccc(-c2cnc3c(c2)CN(c2nnc(C#N)cc2C)CC3)cn1` [Example 392, 5-methyl-6-(3-(6-methylpyridin-3-yl)-7,8-dihydro-1,6-naphthyridin-6(5H)-yl)pyridazine-3-carbonitrile], the Emax at 30 µM was 85% and the EC50 was 0.458 µM.
For `Cc1cc(C#N)nnc1N1CCc2ncc(C3CC3)cc2C1` [Example 393, 6-(3-cyclopropyl-7,8-dihydro-1,6-naphthyridin-6(5H)-yl)-5-methylpyridazine-3-carbonitrile], the Emax (CHO-K1) was 88% and the EC50 was 0.111 µM.
`Cc1cc(C#N)nnc1N1CCc2ncc(-c3ccnn3C)cc2C1` [Example 394, 5-methyl-6-(3-(1-methyl-1H-pyrazol-5-yl)-7,8-dihydro-1,6-naphthyridin-6(5H)-yl)pyridazine-3-carbonitrile] was tested, and the Emax at 30 µM was 86% and the EC50 was 1.08 µM.
Molecule `Cc1cc(C#N)cnc1N1CCc2ncc(C3CCOC3)cc2C1` (stereo not drawn) [Example 395, 5-methyl-6-(3-(tetrahydrofuran-3-yl)-7,8-dihydro-1,6-naphthyridin-6(5H)-yl)nicotinonitrile] has an Emax at 30 µM of 90% and an EC50 of 0.389 µM.
Work on `Cc1cc(C#N)nnc1N1CCc2ncc(Oc3ccccc3F)cc2C1` [Example 396, 6-(3-(2-fluorophenoxy)-7,8-dihydro-1,6-naphthyridin-6(5H)-yl)-5-methylpyridazine-3-carbonitrile] yielded an Emax at 30 µM of 87% and an EC50 of 0.065 µM.
With `Cc1cc(C#N)nnc1N1CCc2ncc(N3CCO[C@H](C)C3)cc2C1` [Example 397, (R)-5-methyl-6-(3-(2-methylmorpholino)-7,8-dihydro-1,6-naphthyridin-6(5H)-yl)pyridazine-3-carbonitrile] the Emax at 30 µM was 72% and the EC50 was 0.441 µM.
Molecule `Cc1cc(C#N)nnc1N1CCc2ncc(N3CCOC(C)(C)C3)cc2C1` [Example 398, 6-(3-(2,2-dimethylmorpholino)-7,8-dihydro-1,6-naphthyridin-6(5H)-yl)-5-methylpyridazine-3-carbonitrile] has an Emax at 30 µM of 74% and an EC50 of 0.102 µM.
Work on `Cc1cc(C#N)nnc1N1CCc2ncc(Nc3cccnc3F)cc2C1` [Example 399, 6-(3-((2-fluoropyridin-3-yl)amino)-7,8-dihydro-1,6-naphthyridin-6(5H)-yl)-5-methylpyridazine-3-carbonitrile] yielded an Emax at 30 µM of 73% and an EC50 of 0.219 µM.
`Cc1cc(C#N)nnc1N1CCc2ncc(-n3cccn3)cc2C1` [Example 400, 6-(3-(1H-pyrazol-1-yl)-7,8-dihydro-1,6-naphthyridin-6(5H)-yl)-5-methylpyridazine-3-carbonitrile] showed an Emax at 30 µM of 56% and an EC50 of 1.05 µM.
Work on `Cc1cc(C#N)nnc1N1CCc2ncc(-c3c(C)noc3C)cc2C1` [Example 401, 6-(3-(3,5-dimethylisoxazol-4-yl)-7,8-dihydro-1,6-naphthyridin-6(5H)-yl)-5-methylpyridazine-3-carbonitrile] yielded an Emax at 30 µM of 76% and an EC50 of 0.522 µM.
For `Cc1cc(C#N)nnc1N1CCc2ncc(C3CCC3)cc2C1` [Example 402, 6-(3-cyclobutyl-7,8-dihydro-1,6-naphthyridin-6(5H)-yl)-5-methylpyridazine-3-carbonitrile], the Emax at 30 µM was 91% and the EC50 was 0.15 µM.
For `Cc1cc(C#N)cnc1N1CCc2ncc(C3CCC3)cc2C1` [Example 403, 6-(3-cyclobutyl-7,8-dihydro-1,6-naphthyridin-6(5H)-yl)-5-methylnicotinonitrile], the Emax at 30 µM was 91% and the EC50 was 0.084 µM.
`Cc1cc(C#N)nnc1N1Cc2cc(N3CCOCC3)cnc2C(C)C1` (stereo not drawn) [Example 404, 5-methyl-6-(8-methyl-3-morpholino-7,8-dihydro-1,6-naphthyridin-6(5H)-yl)pyridazine-3-carbonitrile] showed an Emax at 30 µM of 72% and an EC50 of 0.901 µM.
`Cc1cc(C#N)cnc1N1Cc2cc(N3CCOCC3)cnc2C(C)C1` (stereo not drawn) [Example 405, 5-methyl-6-(8-methyl-3-morpholino-7,8-dihydro-1,6-naphthyridin-6(5H)-yl)nicotinonitrile] showed an Emax at 30 µM of 83% and an EC50 of 0.415 µM.
`Cc1cc(C#N)cnc1N1CCc2ncc(N3CCN(C)C(=O)C3)cc2C1` [Example 409, 5-methyl-6-(3-(4-methyl-3-oxopiperazin-1-yl)-7,8-dihydro-1,6-naphthyridin-6(5H)-yl)nicotinonitrile] was tested, and the Emax at 30 µM was 96% and the EC50 was 1.1 µM.
In the case of `Cc1cc(C#N)nnc1N1CCc2ncc(N3CCN(C)C(=O)C3)cc2C1` [Example 410, 5-methyl-6-(3-(4-methyl-3-oxopiperazin-1-yl)-7,8-dihydro-1,6-naphthyridin-6(5H)-yl)pyridazine-3-carbonitrile], the Emax at 30 µM is reported as 89% and the EC50 is reported as 3.8 µM.
Work on `Cc1cc(C#N)cnc1N1CCc2ncc(N3CCCn4ccnc43)cc2C1` [Example 411, 6-(3-(6,7-dihydroimidazo[1,2-a]pyrimidin-8(5H)-yl)-7,8-dihydro-1,6-naphthyridin-6(5H)-yl)-5-methylnicotinonitrile] yielded an Emax at 30 µM of 47% and an EC50 of 2.25 µM.
For `Cc1cc(C#N)cnc1N1CCc2ncc(N3CCCn4nc(C(F)(F)F)cc43)cc2C1` [Example 412, 5-methyl-6-(3-(2-(trifluoromethyl)-6,7-dihydropyrazolo[1,5-a]pyrimidin-4(5H)-yl)-7,8-dihydro-1,6-naphthyridin-6(5H)-yl)nicotinonitrile], the Emax at 30 µM was 62% and the EC50 was 0.306 µM.
`Cc1cc(C#N)nnc1N1CCc2ncc(N3CCCn4nc(C(F)(F)F)cc43)cc2C1` [Example 413, 5-methyl-6-(3-(2-(trifluoromethyl)-6,7-dihydropyrazolo[1,5-a]pyrimidin-4(5H)-yl)-7,8-dihydro-1,6-naphthyridin-6(5H)-yl)pyridazine-3-carbonitrile] showed an Emax at 30 µM of 102% and an EC50 of 0.257 µM.
